Experimental findings from patent US12643906B2, “Fused aza-heterocyclic amide compound and use thereof” (CSPC ZHONGQI PHARMACEUTICAL TECHNOLOGY (SHIJIAZHUANG) CO., …, priority 2020, dated 2026) are described below.

Read-outs that look alike come from different tables or passages of the source.

For data set [1], the target named is T1, Ba/F3 LMNA-NTRK1-G595R (Homo sapiens, UniProt P04629, G595R, cells depend on it).
T1 construct: fused on or other part: P02545 (Prelamin-A/C)
Kind of data set: In vitro cell proliferation inhibition (MTT). It is filed as cell-based, murine. The conditions noted are these: 72 h, read-out: IC50 Ba/F3 LMNA-NTRK1-G595R. Here is the method:
(§1) Cells in the logarithmic growth phase were harvested and counted using a […]. The cell suspension with a certain density was pipetted uniformly and seeded into a 96-well plate with each well of 100 μL, and shaken to make the cells uniformly disperse into the wells. 100 μL of compound solution with certain concentration gradient was added into each well, and 3 duplicate wells were set for each concentration. The plate was cultured in a CO2 incubator at 37° C. for 72 h. 20 μL of MTT working solution (5 mg/mL) was added into each well, and the plate was placed at 37° C. for 4 h, and centrifuged at 1000 rpm for 5 min by a plate centrifuge. After 180 μL of culture medium was discarded, the plate was added with 150 μL of DMSO, and mixed well with a microplate shaker, the plate bottom was wiped, and optical density (OD) at 550 nm was detected with a microplate reader.

For data set [2], the target named is T2, Ba/F3 ETV6-NTRK3-G623R (Homo sapiens, UniProt Q16288, G623R, cells depend on it).
T2 construct: fused on or other part: P41212 (Transcription factor ETV6)
Nature of the data set: In vitro cell proliferation inhibition (MTT). Type of data set: cell-based, murine. The conditions noted are these: 72 h, read-out: IC50 Ba/F3 ETV6-NTRK3-G623R. Here is the method:
as §1

For data set [3], the target named is T3, Ba/F3 LMNA-NTRK1-G667C (Homo sapiens, UniProt P04629, G667C, cells depend on it).
T3 construct: fused on or other part: P02545 (Prelamin-A/C)
Kind of data set: In vitro cell proliferation inhibition (MTT). It is filed as cell-based, murine. As to conditions: 72 h, read-out: IC50 Ba/F3 LMNA-NTRK1-G667C. Here is the method:
as §1

The target of data set [4] is T4, Ba/F3 ETV6-NTRK3-G696A (Homo sapiens, UniProt Q16288, G696A, cells depend on it).
T4 construct: fused on or other part: P41212 (Transcription factor ETV6)
Nature of the data set: In vitro cell proliferation inhibition (MTT). It is filed as cell-based, murine. As to conditions: 72 h, read-out: IC50 Ba/F3 ETV6-NTRK3-G696A. The protocol: • Source of 6 kinds of cell lines for the test: KYinno Biotechnology (Beijing) Co., Ltd. • Cell type: murine B cells • Culture medium: RPMI-1640+10% FB S 2. Test Method
as §1

For data set [5], the target named is T5, Ba/F3 ETV6-NTRK2 (Homo sapiens, UniProt Q16620).
T5 construct: fused on or other part: P41212 (Transcription factor ETV6)
Kind of data set: In vitro cell proliferation inhibition (MTT). Type of data set: cell-based, murine. The protocol:
as §1

Data set [6] deals with T6, Ba/F3 LMNA-NTRK1 (Homo sapiens, UniProt P04629).
T6 construct: fused on or other part: P02545 (Prelamin-A/C)
Kind of data set: In vitro cell proliferation inhibition (MTT). As to conditions: 72 h, read-out: IC50 Ba/F3 LMNA-NTRK1. It is filed as cell-based, murine. The protocol:
as §1

Data set [7] concerns the target T7, ALK (Homo sapiens, UniProt Q9UM73).
T7 construct: purchased Carna 08-105
Nature of the data set: Kinase inhibition assay with fluorescein labeled peptide, ALK. Type of data set: biochemical. The protocol: Compounds were diluted to a certain concentration in DMSO with 4-fold gradients. The compound with a certain concentration, an enzyme solution and DMSO were added into a 384-well plate, and the plate was incubated at room temperature for 10 min. […] The plate was subjected to reading.

In data set [8] the test system is Ba/F3 LMNA-NTRK1-G667C model. The conditions noted are these: gavage. The protocol: (§2) The cells in the logarithmic growth phase were collected and re-suspending in serum-free culture medium to make the cell concentration at […] cells/mL. The cell suspension was added with equal volume of Matrigel to make the final cell concentration at 3×10^7-5×10^7 cells/mL. The animal model was established by subcutaneously inoculating 0.1 mL of tumor cell suspension in the axilla of the forelimb of NuNu mice (female, 4-6 weeks, Beijing Vital River Laboratory Animal Technology Co., Ltd.) in an amount of 3×10^6-5×10^6 cells/mouse.
(§3) The maximum and the minimum tumor diameters of the xenografts in nude mice were measured using a vernier caliper, and the tumor volume (TV) was calculated according to the formula: V=½×a×b^2, where a and b represent the maximum and minimum diameters of the tumor mass, respectively. Nude mice with appropriate tumor volume were selected and the mice were evenly divided into 7 groups of 6 mice (100-200 mm^3) by tumor volume using a random number method.
(§4) Tumor diameters were measured twice weekly and tumor volume was calculated. […] (where Ti represents the mean tumor volume of a certain administration group on a certain day; TO represents the mean tumor volume of the administration group at the start of administration, Vi represents the mean tumor volume of the vehicle control group on a certain day (same day as Ti) and V0 represents the mean tumor volume of the vehicle control group at the start of administration); • Tumor inhibition rate: at the end of the test, the animals were executed by removing the cervical vertebrae.

In data set [9] the test system is Ba/F3 LMNA-NTRK1-G595R model. As to conditions: 100 mg/kg, gavage. Here is the method:
as §2, §3, §4

Setting [10] is: 72 h, read-out: IC50 Ba/F3 ETV6-NTRK2.

The term IC50 denotes the concentration that gives 50% inhibition. High values mean weaker potency, low ones greater potency.

As for `O=C(Nc1ccc(N2CCN(C(=O)C3CC3)CC2)cc1)c1cnn2ccc(N3C[C@@H](F)C[C@@H]3c3cc(F)ccc3F)nc12` [Compound 7], the GI50 is 0.156 nM in data set [1], 0.499 nM in data set [2], 1.78 nM in data set [3] and 0.736 nM in [4].

In the case of `C[C@@H](O)C(=O)N1CCC(c2ccc(NC(=O)c3cnn4ccc(N5C[C@@H](F)C[C@@H]5c5cc(F)ccc5F)nc34)cc2)CC1` [Compound 12], the GI50 in [1] turned out to be 0.215 nM; in [5] (setting [10]) it was 1.13 nM; in data set [2], 0.237 nM; in [6], 0.635 nM; in data set [3], 1.53 nM; in data set [4], 0.112 nM.

As for `CC(C)(O)C(=O)N1CCC(c2ccc(NC(=O)c3cnn4ccc(N5C[C@@H](F)C[C@@H]5c5cc(F)ccc5F)nc34)cc2)CC1` [Compound 13], the GI50 in data set [3] turned out to be 1.47 nM.

In the case of `O=C(Nc1ccc(CN2CCN(C(=O)CO)CC2)cc1)c1cnn2ccc(N3C[C@@H](F)C[C@@H]3c3cc(F)ccc3F)nc12` [Compound 18, 5-((2R,4S)-2-(2,5-difluorophenyl)-4-fluoropyrrolidin-1-yl)-N-(4-(4-(2-(2-hydroxyacetyl)piperazin-1-yl)methyl)phenyl)pyrazolo[1,5-a]pyrimidine-3-carboxamide], the GI50 in data set [3] worked out at 3.43 nM.

As for `O=C(Nc1ccc(N2CCn3c(nnc3C(F)(F)F)C2)cc1)c1cnn2ccc(N3C[C@@H](F)C[C@@H]3c3cc(F)ccc3F)nc12` [Compound 23], the GI50 in data set [1] came out at 0.525 nM; in data set [2], 0.852 nM; in data set [3] it was 4.93 nM; in data set [4], 0.435 nM.

Turning to `CCN1CCN(c2ccc(C(=O)Nc3cnn4ccc(N5CCC[C@@H]5c5cc(F)ccc5F)nc34)cc2)CC1` [Compound D1], the GI50 in data set [1] came out at 289 nM; in data set [5] (setting [10]) it was 6.09 nM; in data set [2] it was 24.8 nM; in data set [6] it was 1.6 nM; in data set [3], 307 nM; in [4] it was 258 nM.

As to `COc1cc(N2CCN(C)CC2)ccc1C(=O)Nc1cnn2ccc(N3CCC[C@@H]3c3cc(F)ccc3F)nc12` [Compound D2], the GI50 amounted to 230 nM in [1]; 13.4 nM in data set [5] (setting [10]); 46.5 nM in [2]; 1.03 nM in data set [6]; 42.7 nM in data set [3]; 202 nM in [4].

In the case of `CN1CCN(Cc2ccc(C(=O)Nc3cnn4ccc(N5CCC[C@@H]5c5cc(F)ccc5F)nc34)cc2)CC1` [Compound D3], the GI50 in data set [1] turned out to be 522 nM; in data set [5] (setting [10]), 17.4 nM; in data set [2], 207 nM; in data set [6] it was 8.68 nM; in data set [3] it was 316 nM; in data set [4] it was 542 nM.

For `O=C(NC1CCN(C(=O)CO)CC1)c1cnn2ccc(N3C[C@@H](F)C[C@@H]3c3cccc(F)c3)nc12` [Compound D4], the GI50 is 65.9 nM in [1]; 14.9 nM in [5] (setting [10]); 17 nM in data set [2]; 9.52 nM in [6]; at least 1000 nM in [3]; 141 nM in [4].

`O=C(Nc1ccccc1)c1cnn2ccc(N3C[C@@H](F)C[C@@H]3c3cccc(F)c3)nc12` [Compound D5]: the GI50 was 4.59 nM in data set [1]; 12.2 nM in data set [5] (setting [10]); 13.3 nM in data set [2]; 2.14 nM in data set [6]; 413 nM in data set [3]; 90.8 nM in [4].

`C[C@@H]1CCc2ncc(F)cc2[C@H]2CCCN2c2ccn3ncc(c3n2)C(=O)N1` [LOXO-195, reference compound] yielded an IC50 in [7] of 391 nM. The GI50 in data set [5] (setting [10]) is 2.89 nM; in data set [2] it was 4.54 nM; in [6], 9.08 nM; in [3], 112 nM; in [4], 4.5 nM. Besides, the “Number of animals (Survival/total)” value in data set [8] (100 mg/kg) is on record as “(6/6)”; in data set [8] (200 mg/kg), “(5/6)”; in data set [9] it was “(6/6)”. Also, the “Rate of weight gain (%)” value in [8] (100 mg/kg) is 2.38%; in [8] (200 mg/kg), 7.88%; in data set [9], 8.59%. Further, the “TGI (%)” value in data set [8] (100 mg/kg) is listed as 36.4%; in data set [8] (200 mg/kg), 95.4%; in data set [9], 124.6%. Further, the “Tumor volume (mm^3)” value in data set [8] (100 mg/kg) came to 381.2 ± 134.4 mm^3; in data set [8] (200 mg/kg), 154.5 ± 92.2 mm^3; in data set [9], 66.3 ± 37.1 mm^3. Also, the “Tumor weight” value in data set [8] (100 mg/kg) amounted to 0.43 ± 0.18 g; in data set [8] (200 mg/kg), 0.22 ± 0.16 g; in data set [9] it was 0.12 ± 0.06 g. Also, the “Tumor weight inhibition rate (%)” value in [8] (100 mg/kg) amounted to 21.57%; in data set [8] (200 mg/kg) it was 59.96%; in data set [9], 76.58%.

`CN1CCN(c2ccc(C(=O)Nc3n[nH]c4ccc(Cc5cc(F)cc(F)c5)cc34)c(NC3CCOCC3)c2)CC1` [RXDX-101, Entrectinib]: the GI50 in [5] (read-out: IC50 Ba/F3 ETV6-NTRK2, 72 h) came to 2.13 nM.
